One test relates to Pichia kudriavzevii. Nature of the test: Antifungal activity against Candida krusei ATCC 20579. It counts as functional.
The species named for test [1] is Mus musculus. Nature of the test: Hepatotoxicity using inclusion-body formation test in hepatocytes of mice. The format is functional, Hepatocyte.
In test [2] the test system is Mus musculus. Nature of the test: In vivo efficacy against Aspergillus fumigatus CF1083 1E4 conidia/g for pulmonary aspergillosis in mice after iv treatment on day 14. It counts as functional. As to conditions: 336 h.
In the next test the test system is Nakaseomyces glabratus. Nature of the test: Antifungal activity against Candida glabrata ATCC 2001. It counts as functional.
The test system of test [3] is Candida albicans. Nature of the test: Antifungal activity against Candida albicans KB fluconazole resistant strain. It counts as functional.
The test system of test [4] is Candida albicans. Nature of the test: Antifungal activity against Candida albicans ATCC 48130. It counts as functional.
Test [5] concerns Candida albicans. Nature of the test: In vitro antifungal activity against Candida albicans CY1002. The format is functional, organism-based.
Test [6] deals with Candida albicans. Nature of the test: In vitro antifungal activity against Candida albicans CY1002 using 80 percent serum. The format is functional, organism-based.
Another test concerns Candida tropicalis. Nature of the test: Antifungal activity against Candida tropicalis ATCC 13803. It counts as functional.
Another test concerns Aspergillus fumigatus. Nature of the test: Antifungal activity against Aspergillus fumigatus MTU06002. The format is functional.
A further test has as its target Beta-1,3-glucan synthase (Candida albicans, UniProt O13428). Nature of the test: In vitro inhibitory activity against Beta glucan synthase.
A further test relates to Scedosporium boydii. Nature of the test: Antifungal activity against Scedosporium […] IFM40731N. It counts as functional.
Test [7] has as its system Mus musculus. Nature of the test: In vivo efficacy against Candida albicans CY1002 5E6 cells for systemic candidiasis in mice after iv treatment on day 7. It counts as functional. To be noted: CY1002 5E6, iv, 168 h.
The next test has as its system Lomentospora prolificans. Nature of the test: Antifungal activity against Scedosporium prolificans ATCC 20054. The format is functional.

≈ marks a conversion by molar mass, not a printed value.

Sequence of Beta-1,3-glucan synthase (O13428 whole entry): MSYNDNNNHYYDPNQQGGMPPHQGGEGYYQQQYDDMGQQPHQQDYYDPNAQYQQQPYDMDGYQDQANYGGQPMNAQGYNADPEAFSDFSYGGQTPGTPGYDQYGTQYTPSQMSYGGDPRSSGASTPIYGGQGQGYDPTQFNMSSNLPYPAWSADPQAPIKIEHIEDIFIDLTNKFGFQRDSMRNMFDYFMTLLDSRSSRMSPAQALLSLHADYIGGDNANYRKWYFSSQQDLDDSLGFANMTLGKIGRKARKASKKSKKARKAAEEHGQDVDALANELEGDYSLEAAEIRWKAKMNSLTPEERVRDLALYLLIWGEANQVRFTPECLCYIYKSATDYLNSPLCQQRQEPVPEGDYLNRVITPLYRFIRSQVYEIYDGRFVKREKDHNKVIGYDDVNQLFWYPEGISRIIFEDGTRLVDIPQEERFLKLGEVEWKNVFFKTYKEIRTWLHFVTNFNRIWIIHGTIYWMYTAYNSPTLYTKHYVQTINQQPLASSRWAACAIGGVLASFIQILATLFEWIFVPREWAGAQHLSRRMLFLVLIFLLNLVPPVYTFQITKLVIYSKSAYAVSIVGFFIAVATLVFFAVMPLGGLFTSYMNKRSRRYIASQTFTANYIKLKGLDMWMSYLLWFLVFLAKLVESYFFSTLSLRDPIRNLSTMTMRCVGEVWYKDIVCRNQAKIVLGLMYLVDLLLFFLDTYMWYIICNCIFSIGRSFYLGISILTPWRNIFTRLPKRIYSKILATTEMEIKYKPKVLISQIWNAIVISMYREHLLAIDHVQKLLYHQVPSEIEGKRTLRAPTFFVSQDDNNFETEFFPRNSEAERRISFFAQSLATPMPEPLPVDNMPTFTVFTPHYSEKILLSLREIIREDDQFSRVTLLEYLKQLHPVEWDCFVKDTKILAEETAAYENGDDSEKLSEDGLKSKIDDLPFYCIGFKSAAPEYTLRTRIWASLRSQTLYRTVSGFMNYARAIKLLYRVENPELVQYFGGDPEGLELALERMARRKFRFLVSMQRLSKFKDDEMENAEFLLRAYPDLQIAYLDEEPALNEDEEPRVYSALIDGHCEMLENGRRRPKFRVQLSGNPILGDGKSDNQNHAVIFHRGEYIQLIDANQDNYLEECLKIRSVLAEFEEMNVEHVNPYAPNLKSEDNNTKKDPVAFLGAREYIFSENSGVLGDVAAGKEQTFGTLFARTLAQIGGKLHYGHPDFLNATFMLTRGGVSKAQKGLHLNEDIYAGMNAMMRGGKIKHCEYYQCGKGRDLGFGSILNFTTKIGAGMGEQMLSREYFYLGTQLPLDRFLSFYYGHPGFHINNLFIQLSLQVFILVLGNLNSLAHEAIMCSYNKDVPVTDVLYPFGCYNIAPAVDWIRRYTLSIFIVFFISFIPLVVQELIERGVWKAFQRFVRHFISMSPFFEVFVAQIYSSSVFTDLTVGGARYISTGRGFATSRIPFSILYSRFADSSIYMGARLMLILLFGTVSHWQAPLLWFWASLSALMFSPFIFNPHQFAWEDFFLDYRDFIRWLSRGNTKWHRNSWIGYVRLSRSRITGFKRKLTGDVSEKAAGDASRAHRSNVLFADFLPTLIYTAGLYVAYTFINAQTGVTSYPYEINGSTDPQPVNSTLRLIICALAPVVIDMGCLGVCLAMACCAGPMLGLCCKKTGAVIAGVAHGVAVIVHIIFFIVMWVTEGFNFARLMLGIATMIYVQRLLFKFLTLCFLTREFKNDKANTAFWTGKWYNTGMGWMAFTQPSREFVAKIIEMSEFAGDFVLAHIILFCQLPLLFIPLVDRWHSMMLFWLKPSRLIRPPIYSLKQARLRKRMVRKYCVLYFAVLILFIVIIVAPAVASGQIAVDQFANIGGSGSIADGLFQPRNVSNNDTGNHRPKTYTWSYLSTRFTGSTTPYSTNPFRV

Turning to `CCCCCCCCCCCCC[C@@H]1CC(=O)N[C@H]([C@@H](C)O)C(=O)N[C@H](C)C(=O)N[C@@H](Cc2ccc(O)cc2)C(=O)N[C@@H](C(C)C)C(=O)N2C[C@H](O)C[C@H]2C(=O)N[C@H]([C@@H](C)O)C(=O)N[C@@H]([C@@H](C)O)C(=O)N2CC[C@H](O)[C@H]2C(=O)N[C@@H]([C@H](O)CC(N)=O)C(=O)NCC(=O)N[C@H]([C@@H](C)O)C(=O)N[C@@H](CCCN(CCCN)C(=O)[C@H](CCCN)N(CCN)CCN)C(=O)O1`, the MIC against Pichia kudriavzevii is 0.31 µg/mL (≈ 0.173 µM); against Nakaseomyces glabratus it was 1 µg/mL (≈ 0.558 µM); against Candida albicans [3], 0.35 µg/mL (≈ 0.195 µM); with Candida albicans [4] it was 0.41 µg/mL (≈ 0.229 µM); with Candida tropicalis it was 0.63 µg/mL (≈ 0.352 µM); in the test on Aspergillus fumigatus, 0.37 µg/mL (≈ 0.207 µM). Moreover, the MIC was found to be 0.35 µg/mL (≈ 0.195 µM) in the test with Scedosporium boydii and 0.38 µg/mL (≈ 0.212 µM) with Lomentospora prolificans. Further, the Observed at in the test filed under Mus musculus [1] came out at 100 µg/mL. For the same molecule, the median effective dose (ED50) with Mus musculus [2] was 8.6 mg/kg; with Mus musculus [7], 0.08 mg/kg. In addition, the values for the IC50 with Candida albicans [5], in the test on Candida albicans [6] and on Beta-1,3-glucan synthase were 0.45 µg/mL (≈ 0.251 µM), 0.31 µg/mL (≈ 0.173 µM) and 0.28 nM, respectively.

The values above are taken from ChEMBL document CHEMBL1134059, “Synthesis and antifungal activities of novel 1,3-beta-D-glucan synthase inhibitors. Part 2” (Bioorg Med Chem Lett, 2001).
